Experimental data taken from patent US20220168301A1, “METHODS FOR TREATING SYMPTOMATIC ORTHOSTATIC HYPOTENSION” (Cerecor Inc, priority 2019, published 2022).
Where two headings read alike, the source gives them in different places.

Key:
[1] = tested on: healthy subjects; experiment: Safety and tolerability over 7 days of once-daily administration in healthy subjects; type: in vivo, human
Description: (§1) The study was a randomized, double-blind, placebo-controlled parallel-group, three-part, repeated dose in-patient study investigating the safety, tolerability, PK, and PD of CERC-301 in healthy subjects.
(§2) Subjects received 8, 12, 16 or 20 mg CERC-301 or matching placebo once-daily for 7 days.
The safety variables evaluated included treatment-emergent adverse events (TEAE), vital signs, clinical safety laboratories (chemistry, hematology, urinalysis), electrocardiograms (ECGs), physical examinations, Clinician Administered Dissociated States Scale (CADSS) and Columbia-Suicide Severity Rating Scale (C-SSRS).

[2] = Plasma pharmacokinetics of CERC-301, single and 7-day repeated dose, healthy subjects; type: in vivo, human; conditions: for half-life: read-out: Average t1/2; for Tmax: read-out: Median tmax
Description: as §1, §2
PK endpoints included the following determined from plasma CERC-301 concentration data: • Day 1 parameters include Cmax, Tmax, AUC0-24, AUC0-inf, AUC%extrap, CL/F, Vz/F, and t1/2 • Day 7 parameters include Cmax, Tmax, AUC0-24, AUC0-inf, AUC%extrap, CL/F, Vss/F, t1/2, and Cavg • Trough concentrations will be reported for Days 2-8 • Accumulation after 7-days of dosing will be investigated by calculating: • Observed Accumulation Ratio: AUCo-24 (Day 7)/AUC0-24 (Day 1) • Steady State Accumulation Ratio: AUC0-24 (Day 7)/AUC0-int (Day 1) • Cmax ratio: Cmax (Day 7)/Cmax (Day 1)
Pharmacokinetic parameters were determined for CERC-301 using noncompartmental methods based on plasma CERC-301 concentration data following the first and last dose of CERC-301. […] Mean plasma CERC-301 concentrations on Day 7 were approximately 20% to 40% higher from 2 to 24 hours postdose in the intermediate age and elderly subgroups, respectively, compared to the young age subgroup, and were approximately 20% higher from 2 to 24 hours postdose in female subjects compared to male subjects.

[3] = rats, cited from earlier work
[4] = monkeys, cited from earlier work
[5] = tested on: patients with symptomatic nOH associated with Parkinson's disease; experiment: Safety and tolerability of single doses in patients with nOH associated with Parkinson's disease; type: in vivo, human
Description: This study was designed as a randomized, double-blind, placebo-controlled trial in order to distinguish effects of active treatment in an efficient and unbiased manner. As CERC-301 had not previously been tested in subjects with symptomatic OH, a single escalating dose study design was used to ensure safety of the study participants.
Subjects were dosed on five separate occasions, approximately 7-10 days apart, with one of four single escalating doses of CERC-301 or placebo and underwent an orthostatic challenge test to assess the safety, tolerability, effect on blood pressure, and PK. Subjects also completed a symptomatic assessment following the orthostatic challenge. Subjects were enrolled and randomized based on the dosing schedule in Table 4:
AEs were monitored and the following information recorded: • Verbatim complaint • Whether the event was treatment-emergent (TEAE) • Whether event was serious (SAE) • Date of onset • Severity of event • Relationship of event to study drug • Action taken regarding study drug due to the event • Clinical outcome of event (resolved or ongoing) • If resolved, provide date of resolution
The following vital signs were measured during the study: • Blood pressure (systolic and diastolic [mm Hg]) • Heart rate (beats per minute [bpm]) • Oral body temperature (°C)
Two analysis sets were used. […] The SAF consists of all randomized subjects who receive at least one dose of study medication. […] The PKAS consists of all subjects from the SAF for whom sufficient plasma concentration data are available to facilitate the calculation of at least one PK parameter.
All safety and tolerability data are summarized using descriptive statistics. They are listed and summarized in tabular and/or graphical form. […] Descriptive statistics for laboratory values and their change or shift from baseline for each dose group are provided for each scheduled time of collection. Descriptive statistics for vital signs and their change from baseline for each dose group are provided for each scheduled time of collection. The placebo subjects are combined into a single placebo group for summary presentations.

[6] = whole study, active and placebo not separated

- Plasma CERC-301 concentrations increase with dose ([2]; 8 to 20 mg, steady-state daily dosing): approximately dose proportional
- Apparent oral clearance, lower in female subjects compared to male subjects ([2]; Day 7): approximately 15%
- Apparent oral clearance, lower in intermediate age group compared to young age group ([2]; Day 7): approximately 18%
- Average Cmax, higher in intermediate age and elderly subgroups compared to young age group ([2]; Day 7): approximately 30%
- Average t1/2, higher in elderly age group compared to young age group ([2]; Day 7): ~38%
- Average t1/2, higher in female subjects compared to male subjects ([2]; Day 7): approximately 16%
- Average t1/2, higher in intermediate age group compared to young age group ([2]; Day 7): approximately 27%
- Mean plasma CERC-301 concentrations, higher in elderly subgroup compared to young age subgroup ([2]; Day 7, 2 to 24 hours postdose): ~40%
- Mean plasma CERC-301 concentrations, higher in female subjects compared to male subjects ([2]; Day 7, 2 to 24 hours postdose): approximately 20%
- Mean plasma CERC-301 concentrations, higher in intermediate age subgroup compared to young age subgroup ([2]; Day 7, 2 to 24 hours postdose): approximately 20%
- Cmax and AUC increase with dose ([2]; Days 1 and 7, 8 to 20 mg): approximately dose-proportional
- half-life ([2]; both sexes, human, plasma, oral, male and female subjects, Day 7): 21 to 24 h
- Tmax ([2]; both sexes, human, plasma, oral, male and female subjects): 1.75 to 2 h
- Average Day 7 to Day 1 Cmax ratio ([2]; elderly age group): 1.53
- Mean observed accumulation index ([2]; elderly age group): 2.12
- Mean steady state accumulation index ([2]; elderly age group): 1.30
- Average apparent volume of distribution ([2]; elderly age subgroup, Day 7): 111 L
- Average Day 7 to Day 1 Cmax ratio ([2]; females): 1.38
- Mean observed accumulation index ([2]; females): 1.88
- Mean steady state accumulation index ([2]; females): 1.10
- Average apparent volume of distribution ([2]; females, Day 7): 105 L
- Oral bioavailability ([2]; human, in vivo, po): orally bioavailable
- Tmax ([2]; human, plasma, oral, Day 1, 8 to 20 mg): 2 to 3 h
- Tmax ([2]; human, plasma, oral, Day 7, 8 to 20 mg): 1.5 to 3 h
- Tmax ([2]; human, plasma, oral, young subjects, Days 1 and 7, 8 to 20 mg): 1.5 to 3 h
- half-life ([2]; human, plasma, oral, young, intermediate age and elderly subgroups, Day 7): 20 to 28 h
- Tmax ([2]; human, plasma, oral, young, intermediate age and elderly subgroups): 1.5 to 2.5 h
- Vd ([2]; human, plasma, oral, young subjects, Day 7, 8 to 20 mg, read-out: Average apparent volume of distribution): 83 to 115 L
- half-life ([2]; human, plasma, oral, young subjects, Day 7, 8 to 20 mg): 17 to 21 h
- Average Day 7 to Day 1 Cmax ratio ([2]; intermediate age group): 1.41
- Mean observed accumulation index ([2]; intermediate age group): 1.92
- Mean steady state accumulation index ([2]; intermediate age group): 1.13
- Average apparent volume of distribution ([2]; intermediate age subgroup, Day 7): 121 L
- Average Day 7 to Day 1 Cmax ratio ([2]; males): 1.36
- Mean observed accumulation index ([2]; males): 1.72
- Mean steady state accumulation index ([2]; males): 1.15
- Average apparent volume of distribution ([2]; males, Day 7): 108 L
- Steady-state predose plasma CERC-301 concentrations achieved ([2]; repeated daily doses): by study day 5 or 6
- Average Day 7 to Day 1 Cmax ratio ([2]; young age group): 1.15
- Mean observed accumulation index ([2]; young age group): 1.65
- Mean steady state accumulation index ([2]; young age group): 1.01
- Average apparent volume of distribution ([2]; young age subgroup, Day 7): 115 L
- Steady-state accumulation index (AUC0-24 Day 7/AUC0-inf Day 1) ([2]; young subjects, on average): 1.1
Structure (SMILES): Cc1ccc(COC(=O)N2CC[C@H](CNc3ncccn3)[C@H](F)C2)cc1 [CERC-301]
- Changes in vital signs, ECGs or physical examination attributable to CERC-301 ([1]; 8 to 20 mg for 7 days): no clinically significant adverse changes
- Dose-related or age-related differences in TEAEs or related AEs ([1]; 8 to 20 mg for 7 days): no clear-cut dose-related or age-related differences
- Most common related AEs (each in at least two subjects receiving CERC-301) ([1]; 8 to 20 mg for 7 days): feeling abnormal, headache, feeling of relaxation, elevated mood, dizziness, logorrhea, sedation, visual impairment, energy increased, palpitations, disturbance in attention, hypervigilance, confusional state, oral paresthesia, anxiety, chest pain, depressed mood, diarrhea, and balance disorder
- Laboratory abnormalities attributable to CERC-301 ([1]; except ALT/AST increases in one elderly and elevated prolactin in one young, both 12 mg): no clinically significant laboratory abnormalities
- Tolerability ([1]; repeated daily doses of 8, 12, 16 and 20 mg for 7 days): generally well tolerated
- Excretion [3]: excreted exclusively as metabolites via both the biliary and renal routes
- Metabolism [3]: highly metabolized via multiple cytochrome P450 (CYP450) enzymes
- Absorption ([3]; oral administration): rapidly absorbed after oral administration
- Excretion [4]: excreted exclusively as metabolites via both the biliary and renal routes
- Metabolism [4]: highly metabolized via multiple cytochrome P450 (CYP450) enzymes
- Absorption ([4]; oral administration): rapidly absorbed after oral administration
- Safety and tolerability ([5]; single doses of 8, 12, 16 and 20 mg): safe and well tolerated
- Signals of increased heart rate or supine hypertension during the recumbent phase of the OST, active versus placebo ([5]; single doses of 8 to 20 mg): No signals of increased heart rate or, supine hypertension
- SAEs ([5]; whole study): No SAEs were reported
- AE reported: blurred vision [5, 6]: 14.3%
- AE reported: dizziness [5, 6]: 7.1%
- AE reported: fall [5, 6]: 14.3%
- AE reported: hypoaesthesia [5, 6]: 7.1%
- AE reported: hypotension [5, 6]: 7.1%
- AE reported: memory impairment [5, 6]: 7.1%
- AE reported: nasal congestion [5, 6]: 7.1%
- AE reported: on/off phenomenon [5, 6]: 7.1%
- AE reported: somnolence [5, 6]: 7.1%
- AE reported: squamous cell carcinoma [5, 6]: 7.1%
